Test results: US4486586A, “Cephalosporin derivatives” (Bristol-Myers Company, priority 1983, dated 1984)
≈ marks a conversion by molar mass, not a printed value.

Legend:
[1] = system: Penicillinresistant S. aureus; test: MIC, two-fold serial agar dilution in Mueller-Hinton agar, group (G+)-Ib; assay type: cell-based; settings: Staphylococcus aureus, penicillin-resistant S. aureus, 5 strains, read-out: Geometric Mean of MIC, (G+)-Ib
Experimental: (§1) In the primary evaluation of the compounds of this invention, the Minimum Inhibitory Concentrations (MIC's) of the compounds were determined by the two-fold serial agar dilution method in Mueller-Hinton agar against 32 strains of test organisms in six groups.
(G+)Ib: Penicillinresistant S. aureus (5

[2] = system: M. morganii, Ent. cloacae and Ser. marcescens; test: MIC, two-fold serial agar dilution in Mueller-Hinton agar, group (G-)-II; assay type: cell-based; settings: 5 strains, read-out: Geometric Mean of MIC, (G-)-II
Experimental: as §1
(G-)II: M. morganii (1 strain), Ent. cloacae (2 strains) andSer.

Ps. aeruginosa = test: MIC, two-fold serial agar dilution in Mueller-Hinton agar, group (G-)-III; assay type: cell-based; settings: Pseudomonas aeruginosa, 7 strains, read-out: Geometric Mean of MIC, (G-)-III
Experimental: as §1
(G-)III: Ps. aeruginosa (7 strains)

[3] = system: Cephalothinsensitive E. coli, Kl. pneumoniae and Pr. mirabilis; test: MIC, two-fold serial agar dilution in Mueller-Hinton agar, group (G-)-Ia; assay type: cell-based; settings: cephalothin-sensitive E. coli, 5 strains, read-out: Geometric Mean of MIC, (G-)-Ia
Experimental: as §1
(G-)Ia: Cephalothinsensitive E. coli (2 strains), Kl. pneumoniae (1
strain) and Pr. mirabilis (2 strains)

[4] = system: Cephalothinresistant E. coli and Kl. pneumoniae; test: MIC, two-fold serial agar dilution in Mueller-Hinton agar, group (G-)-Ib; assay type: cell-based, E. coli (3 strains) and Kl. pneumoniae (3 strains); settings: read-out: Geometric Mean of MIC, (G-)-Ib
Experimental: as §1
(G-)Ib: Cephalothinresistant E. coli (3 strains) and Kl. pneumoniae (3

[5] = system: Penicillinsensitive S. aureus; test: MIC, two-fold serial agar dilution in Mueller-Hinton agar, group (G+)-Ia; assay type: cell-based; settings: Staphylococcus aureus, penicillin-sensitive S. aureus, 5 strains, read-out: Geometric Mean of MIC, (G+)-Ia
Experimental: as §1

Compound: CC(C)(O/N=C(\C(=O)NC1C(=O)N2C(C(=O)[O-])=C(/C=C/C[n+]3ccccc3)CS[C@H]12)c1csc(N)n1)C(=O)O (stereo partly shown) [Compound I-4B, 7-[(Z)-2-(2-Aminothiazol-4-yl)-2-(2-carboxy-2-propoxyimino)acetamido]-3-[(E)-3-pyridinio-1-propen-1-yl]-3-cephem-4-carboxylate]
- MIC [1]: 15 µg/mL (≈ 26.2 µM)
- MIC [2]: 0.41 µg/mL (≈ 0.716 µM)
- MIC (Ps. aeruginosa): 5 µg/mL (≈ 8.73 µM)
- MIC [3]: 0.046 µg/mL (≈ 0.0803 µM)
- MIC [4]: 0.37 µg/mL (≈ 0.646 µM)
- MIC [5]: 6 µg/mL (≈ 10.5 µM)

Compound: C[N+]1(C/C=C/C2=C(C(=O)[O-])N3C(=O)C(NC(=O)/C(=N\OC4(C(=O)O)CCC4)c4csc(N)n4)C3SC2)CCCC1 (stereo not shown) [Compound I-5A]
- MIC [1]: 4.7 µg/mL (≈ 7.96 µM)
- MIC [2]: 0.26 µg/mL (≈ 0.44 µM)
- MIC (Ps. aeruginosa): 2.6 µg/mL (≈ 4.4 µM)
- MIC [3]: 0.038 µg/mL (≈ 0.0643 µM)
- MIC [4]: 0.23 µg/mL (≈ 0.389 µM)
- MIC [5]: 1.8 µg/mL (≈ 3.05 µM)

Compound: CO/N=C(\C(=O)NC1C(=O)N2C(C(=O)[O-])=C(/C=C/C[n+]3ccsc3C)CS[C@H]12)c1csc(N)n1 (stereo partly shown) [Compound I-1H, 7-[(Z)-2-(2-Aminothiazol-4-yl)-2-methoxyiminoacetamido]-3-[(E)-3-(2-methyl-3-thiazolio)-1-propen-1-yl]-3-cephem-4-carboxylate]
- MIC [1]: 0.3 µg/mL (≈ 0.576 µM)
- MIC [2]: 0.074 µg/mL (≈ 0.142 µM)
- MIC (Ps. aeruginosa): 5.7 µg/mL (≈ 10.9 µM)
- MIC [3]: 0.0093 µg/mL (≈ 0.0179 µM)
- MIC [4]: 0.05 µg/mL (≈ 0.096 µM)
- MIC [5]: 0.1 µg/mL (≈ 0.192 µM)

Compound: CO/N=C(\C(=O)NC1C(=O)N2C(C(=O)[O-])=C(/C=C/C[n+]3cccc(N)c3)CS[C@H]12)c1csc(N)n1 (stereo partly shown) [Compound I-1E, 7-[(Z)-2-(2-Aminothiazol-4-yl)-2-methoxyiminoacetamido]-3-[(E)-3-(3-aminopyridinio)-1-propen-1-yl]-3-cephem-4-carboxylate]
- MIC [1]: 0.3 µg/mL (≈ 0.582 µM)
- MIC [2]: 0.043 µg/mL (≈ 0.0834 µM)
- MIC (Ps. aeruginosa): 5.7 µg/mL (≈ 11.1 µM)
- MIC [3]: < 0.0053 µg/mL
- MIC [4]: 0.05 µg/mL (≈ 0.097 µM)
- MIC [5]: 0.1 µg/mL (≈ 0.194 µM)

Compound: CO/N=C(\C(=O)NC1C(=O)N2C(C(=O)[O-])=C(/C=C/C[n+]3ccsc3SC)CS[C@H]12)c1csc(N)n1 (stereo partly shown) [Compound I-1G, 7-[(Z)-2-(2-Aminothiazol-4yl)-2-methoxyiminoacetamido]-3-[(E)-3-(2-methylthio-3-thiazolio)-1-propen-1-yl]-3-cephem-4-carboxylate]
- MIC [1]: 0.39 µg/mL (≈ 0.706 µM)
- MIC [2]: 0.085 µg/mL (≈ 0.154 µM)
- MIC (Ps. aeruginosa): 7.6 µg/mL (≈ 13.8 µM)
- MIC [3]: 0.014 µg/mL (≈ 0.0253 µM)
- MIC [4]: 0.074 µg/mL (≈ 0.134 µM)
- MIC [5]: 0.15 µg/mL (≈ 0.271 µM)

Compound: Nc1nc(/C(=N/OC2(C(=O)O)CCC2)C(=O)NC2C(=O)N3C(C(=O)[O-])=C(/C=C/C[n+]4ccc5sc(N)nc5c4)CS[C@H]23)cs1 (stereo partly shown) [Compound I-5C, 7-[(Z)-2-(2-Aminothiazol-4-yl)-2-(1-carboxycyclobut-1-oxyimino)acetamido]-3-[(E)-3-(2-amino-5-thiazolo[4,5-c]pyridinio)-1-propen-1-yl]-3-cephem-4-carboxylate]
- MIC [1]: 4.4 µg/mL (≈ 6.7 µM)
- MIC [2]: 0.14 µg/mL (≈ 0.213 µM)
- MIC (Ps. aeruginosa): 2.7 µg/mL (≈ 4.11 µM)
- MIC [3]: 0.015 µg/mL (≈ 0.0228 µM)
- MIC [4]: 0.15 µg/mL (≈ 0.228 µM)
- MIC [5]: 1.3 µg/mL (≈ 1.98 µM)

Compound: CO/N=C(\C(=O)NC1C(=O)N2C(C(=O)[O-])=C(/C=C/C[n+]3ccc(N)cc3)CS[C@H]12)c1csc(N)n1 (stereo partly shown) [Compound I-1I, 7-[(Z)-2-(2-Aminothiazol-4-yl)-2-methoxyiminoacetamido]-3-[(E)-3-(4-amino-1-pyridinio)-1-propen-1-yl]-3-cephem-4-carboxylate]
- MIC [1]: 0.34 µg/mL (≈ 0.659 µM)
- MIC [2]: 0.15 µg/mL (≈ 0.291 µM)
- MIC (Ps. aeruginosa): > 25 µg/mL
- MIC [3]: < 0.016 µg/mL
- MIC [4]: 0.1 µg/mL (≈ 0.194 µM)
- MIC [5]: 0.11 µg/mL (≈ 0.213 µM)

Compound: Nc1nc(/C(=N/OC2(C(=O)O)CCC2)C(=O)NC2C(=O)N3C(C(=O)[O-])=C(/C=C/C[n+]4ccccc4)CS[C@H]23)cs1 (stereo partly shown) [Compound I-5B, 7-[(Z)-2-(2-Aminothiazol-4-yl)-2-(1-carboxycyclobut-1-oxyimino)acetamido]-3-[(E)-3-pyridinio-1-propen-1-yl]-3-cephem-4-carboxylate]
- MIC [1]: 4.7 µg/mL (≈ 8.04 µM)
- MIC [2]: 0.17 µg/mL (≈ 0.291 µM)
- MIC (Ps. aeruginosa): 2 µg/mL (≈ 3.42 µM)
- MIC [3]: 0.019 µg/mL (≈ 0.0325 µM)
- MIC [4]: 0.23 µg/mL (≈ 0.393 µM)
- MIC [5]: 1.6 µg/mL (≈ 2.74 µM)

Compound: CO/N=C(\C(=O)NC1C(=O)N2C(C(=O)[O-])=C(/C=C/C[N+](C)(C)C)CS[C@H]12)c1csc(N)n1 (stereo partly shown) [Compound I-1D, 7-[(Z)-2-(2-Aminothiazol-4-yl)-2-methoxyiminoacetamido]-3-[(E)-3-trimethylammonio-1-propen-1-yl]-3-cephem-4-carboxylate]
- MIC [1]: 0.59 µg/mL (≈ 1.23 µM)
- MIC [2]: 0.1 µg/mL (≈ 0.208 µM)
- MIC (Ps. aeruginosa): 3.1 µg/mL (≈ 6.45 µM)
- MIC [3]: 0.0093 µg/mL (≈ 0.0194 µM)
- MIC [4]: 0.074 µg/mL (≈ 0.154 µM)
- MIC [5]: 0.17 µg/mL (≈ 0.354 µM)

Compound: CO/N=C(\C(=O)NC1C(=O)N2C(C(=O)[O-])=C(/C=C/C[N+]3(C)CCCC3)CS[C@H]12)c1csc(N)n1 (stereo partly shown) [Compound I-1A, 7-[(Z)-2-(2-Aminothiazol-4-yl)-2-methoxyiminoacetamido]-3-[(E)-3-(1-methylpyrrolidinio)-1-propen-1-yl]-3-cephem-4-carboxylate]
- MIC [1]: 0.59 µg/mL (≈ 1.16 µM)
- MIC [2]: 0.13 µg/mL (≈ 0.257 µM)
- MIC (Ps. aeruginosa): 5.1 µg/mL (≈ 10.1 µM)
- MIC [3]: 0.021 µg/mL (≈ 0.0415 µM)
- MIC [4]: 0.11 µg/mL (≈ 0.217 µM)
- MIC [5]: 0.22 µg/mL (≈ 0.434 µM)

Compound: CSc1scc[n+]1C/C=C/C1=C(C(=O)[O-])N2C(=O)C(NC(=O)/C(=N\OC3(C(=O)O)CCC3)c3csc(N)n3)[C@H]2SC1 (stereo partly shown) [Compound I-5G, 7-[(Z)-2-(2-Aminothiazol-4-yl)-2-(1-carboxycyclobut-1-oxyimino)acetamido]-3-[(E)-3-(2-methylthio-3-thiazolio)-1-propen-1-yl]-3-cephem-4-carboxylate]
- MIC [1]: 2.8 µg/mL (≈ 4.4 µM)
- MIC [2]: 0.13 µg/mL (≈ 0.204 µM)
- MIC (Ps. aeruginosa): 1.9 µg/mL (≈ 2.98 µM)
- MIC [3]: 0.014 µg/mL (≈ 0.022 µM)
- MIC [5]: 0.84 µg/mL (≈ 1.32 µM)

Compound: C[N+]1(C/C=C/C2=C(C(=O)[O-])N3C(=O)C(NC(=O)/C(=N\OC4(C(=O)O)CCC4)c4csc(N)n4)[C@H]3SC2)CC=CC1 (stereo partly shown) [Compound I-5F, 7-[(Z)-2-(2-Aminothiazol-4-yl)-2-(1-carboxycyclobut-1-oxyimino)acetamido]-3-[(E)-3-(1-methyl-3-pyrrolinio)-1-propen-1-yl]-3-cephem-4-carboxylate]
- MIC [1]: 4 µg/mL (≈ 6.8 µM)
- MIC [2]: 0.17 µg/mL (≈ 0.289 µM)
- MIC (Ps. aeruginosa): 2.4 µg/mL (≈ 4.08 µM)
- MIC [3]: 0.037 µg/mL (≈ 0.0629 µM)
- MIC [4]: 0.22 µg/mL (≈ 0.374 µM)
- MIC [5]: 1.5 µg/mL (≈ 2.55 µM)

Compound: CC(C)(O/N=C(\C(=O)NC1C(=O)N2C(C(=O)[O-])=C(/C=C/C[N+]3(C)CCCC3)CS[C@H]12)c1csc(N)n1)C(=O)O (stereo partly shown) [Compound I-4A, 7-[(Z)-2-(2-Aminothiazol-4-yl)-2-(2-carboxy-2-propoxyimino)acetamido]-3-[(E)-3-(1-methylpyrrolidinio)-1-propen-1-yl]-3-cephem-4-carboxylate]
- MIC [1]: 4.1 µg/mL (≈ 7.09 µM)
- MIC [2]: 0.17 µg/mL (≈ 0.294 µM)
- MIC (Ps. aeruginosa): 2.3 µg/mL (≈ 3.97 µM)
- MIC [3]: 0.036 µg/mL (≈ 0.0622 µM)
- MIC [4]: 0.2 µg/mL (≈ 0.346 µM)
- MIC [5]: 2.3 µg/mL (≈ 3.97 µM)

Compound: Nc1ccc[n+](C/C=C/C2=C(C(=O)[O-])N3C(=O)C(NC(=O)/C(=N\OC4(C(=O)O)CCC4)c4csc(N)n4)[C@H]3SC2)c1 (stereo partly shown) [Compound I-5E, 7-[(Z)-2-(2-Aminothiazol-4-yl)-2-(1-carboxycyclobut-1-oxyimino)acetamido]-3-[(E)-3-(3-amino-1-pyridinio)-1-propen-1-yl]-3-cephem-4-carboxylate]
- MIC [1]: 3.1 µg/mL (≈ 5.17 µM)
- MIC [2]: 0.15 µg/mL (≈ 0.25 µM)
- MIC (Ps. aeruginosa): 1.9 µg/mL (≈ 3.17 µM)
- MIC [3]: 0.016 µg/mL (≈ 0.0267 µM)
- MIC [5]: 1.2 µg/mL (≈ 2 µM)

Compound: CO/N=C(\C(=O)NC1C(=O)N2C(C(=O)[O-])=C(/C=C/C[N+]3(C)CC=CC3)CS[C@H]12)c1csc(N)n1 (stereo partly shown) [Compound I-1F, 7-[(Z)-2-(2-Aminothiazol-4-yl)-2-methoxyiminoacetamido]-3-[(E)-3-(1-methyl-3-pyrrolinio)-1-propen-1-yl]-3-cephem-4-carboxylate]
- MIC [1]: 0.39 µg/mL (≈ 0.773 µM)
- MIC [2]: 0.1 µg/mL (≈ 0.198 µM)
- MIC (Ps. aeruginosa): 3.1 µg/mL (≈ 6.14 µM)
- MIC [3]: 0.014 µg/mL (≈ 0.0277 µM)
- MIC [4]: 0.074 µg/mL (≈ 0.147 µM)
- MIC [5]: 0.15 µg/mL (≈ 0.297 µM)

Compound: CO/N=C(\C(=O)NC1C(=O)N2C(C(=O)[O-])=C(/C=C/C[n+]3ccc(C(N)=O)cc3)CS[C@H]12)c1csc(N)n1 (stereo partly shown) [Compound I-1J, 7-[(Z)-2-(2-Aminothiazol-4-yl)-2-methoxyiminoacetamido]-3-[(E)-3-(4-carbamoyl-1-pyridinio)-1-propen-1-yl]-3-cephem-4-carboxylate]
- MIC [1]: 0.61 µg/mL (≈ 1.12 µM)
- MIC [2]: 0.13 µg/mL (≈ 0.239 µM)
- MIC (Ps. aeruginosa): 5.7 µg/mL (≈ 10.5 µM)
- MIC [3]: 0.016 µg/mL (≈ 0.0294 µM)
- MIC [4]: 0.11 µg/mL (≈ 0.202 µM)
- MIC [5]: 0.26 µg/mL (≈ 0.478 µM)
